In general, IC50 refers to the concentration at which inhibition is half-maximal.

Data set [1] has as its system NCI-H460 non-small cell lung carcinoma cells. In words: Cytotoxicity assay (sulphorodamine B test), NCI-H460. Type of data set: cell-based. As to the method: To evaluate the effect of the compounds on cells survival, the sulphorodamine B test was used. To test the effects of the compounds on cell growth, NCI-H460 non-small cell lung carcinoma cells were used. Tumour cells were grown in RPMI 1640 containing 10% fetal bovine serum (GIBCO).
(§1) Tumour cells were seeded in 96-well tissue culture plates at approximately 10% confluence and were allowed to attach and recover for at least 24 h. Varying concentrations of the drugs were then added to each well to calculate their IC50 value (the concentration which inhibits the 50% of cell survival). The plates were incubated at 37° C. for 72 h. At the end of the treatment, the plates were washed by removal of the supernatant and addition of phosphate buffered saline (PBS) 3 times. 200 μl PBS and 50 μl of cold 80% trichloroacetic acid (TCA) were added. The plates were incubated on ice for at least 1 h. TCA was removed, the plates were washed 3 times by immersion in distilled water and dried on paper and at 40° C. for 5 min. Then 200 μl of 0.4% sulphorodamine B in 1% acetic acid were added. The plates were incubated at RT for 30 min. Sulphorodamine B was removed, the plates were washed by immersion in 1% acetic acid for 3 times, then they were dried on paper and at 40° C. for 5 min. Then, 200 μl Tris 10 mM were added, the plates were kept under stirring for 20 min. The cell survival was determined as optical density by a Multiskan spectrofluorimeter at 540 nm. The amount of cells killed was calculated as the percentage decrease in sulphorodamine B binding compared with control cultures.
(§2) The IC50 values were calculated with the “ALLFIT” program.
(§3) The antiproliferative IC50 was evaluated as drug concentration required for 50% reduction of cell growth as compared with untreated controls after 72-h exposure to the drug. The IC50±SD values reported were calculated by ALLFIT program.

In the next data set the target is T1, Hsp90 (Homo sapiens, UniProt P07900).
T1 construct: purchased Stressgen SPP-776
Nature of the data set: Fluorescence polarization (FP) binding assay, displacement of GM-BODIPY. The note with it: GM-BODIPY tracer, 125 nM Hsp90, 4 h at 4° C.; read-out: F.P. binding assay IC50. As to the method:
Fluorescence Polarization (FP)
GM-BODIPY (PerkinElmer, CUSN60342000MG) was previously dissolved in DMSO to obtain 10 mM stock solutions and kept at −20° C. until use.
The compounds were previously dissolved in DMSO to obtain stock solutions and kept at −20° C. The day of experiment, the compounds were prepared by serial dilutions in HFB. Before each use, 0.1 mg/ml Bovine Gamma globulin and 2 mM DTT were freshly added.
The plate was mixed on a shaker at 4° C. for 4 hours, and the FP values in mP (millipolarization units) were recorded. […] Curve fitting was performed using Prism GraphPad software program (GraphPad software, Inc., San Diego, Calif.).
Curve fitting was performed using Prism GraphPad software program (GraphPad software, Inc., San Diego, Calif.).

In data set [2] the test system is human epithelial carcinoma cell line A431. Nature of the data set: Cytotoxicity assay (sulphorodamine B test), A431. Type of data set: cell-based. As to the method: as §1, §2
The antiproliferative activity of novel Hsp90 inhibitors was evaluated on NCI-H460 non-small cell lung carcinoma cells and on a human epithelial carcinoma cell line A431.
as §3

[3] abbreviates: Homo sapiens, NCI-H460, 72-h exposure.
The mark [4] stands for this setting: Homo sapiens, A-431, 72-h exposure.

Structures can show the parent of a compound that is named as a salt.

As for `CCNC(=O)c1noc(-c2cc(C(C)C)c(O)cc2O)c1NC(=O)[C@H]1CC[C@H](CN)CC1` [Example 26, 4-[(trans-4-aminomethyl-cyclohexanecarbonyl)-amino]-5-(2,4-dihydroxy-5-isopropyl-phenyl)-isoxazole-3-carboxylic acid ethylamide hydrochloride], the results for the IC50 (in data set [1] (setting [3]); on Hsp90) were 1000 to 10000 nM and below 100 nM, respectively.

As to `CCNC(=O)c1noc(-c2cc(Cl)c(O)cc2O)c1NC(C)=O` [Example 1, 4-acetylamino-5-(5-chloro-2,4-dihydroxy-phenyl)-isoxazole-3-carboxylic acid ethylamide], the values for the concentration for half-maximal inhibition (IC50) (in data set [2] (setting [4]); in data set [1] (setting [3]); on Hsp90) were 1000 to 10000 nM, 1000 to 10000 nM and below 100 nM, respectively.

Turning to `CCNC(=O)c1noc(-c2cc(Cl)c(O)cc2O)c1NCc1cc(C(=O)OC)no1` [Example 31, Methyl 5-((3-(ethylcarbamoyl)-5-(5-chloro-2,4-dihydroxyphenyl)isoxazol-4-ylamino)methyl)isoxazole-3-carboxylate], the IC50 in data set [2] (setting [4]) is 1000 to 10000 nM; in data set [1] (setting [3]), 1000 to 10000 nM; on Hsp90, below 100 nM.

As for `CCNC(=O)c1noc(-c2cc(C(C)C)c(O)cc2O)c1NC(=O)c1ccc2cc[nH]c2c1` [Example 17, 1H-indole-6-carboxylic acid [5-(2,4-dihydroxy-5-isopropyl-phenyl)-3-ethylcarbamoyl-isoxazol-4-yl]-amide], the figures for the IC50 (in data set [2] (setting [4]); in data set [1] (setting [3]); at Hsp90) were 100 to 1000 nM, 100 to 1000 nM and below 100 nM, respectively.

Turning to `CCNC(=O)c1noc(-c2cc(C(C)C)c(O)cc2O)c1NC(C)=O` [Example 12, 4-acetylamino-5-(2,4-dihydroxy-5-isopropyl-phenyl)-isoxazole-3-carboxylic acid ethylamide], the IC50 (in data set [1] (setting [3]); at Hsp90) was below 100 nM throughout.

On to `CCNC(=O)c1noc(-c2cc(Cl)c(O)cc2O)c1NC(=O)C12CC3CC(CC(C3)C1)C2` [Example 6, 4-[(adamantane-1-carbonyl)-amino]-5-(5-chloro-2,4-dihydroxy-phenyl)-isoxazole-3-carboxylic acid ethylamide], for which the IC50 (in data set [2] (setting [4]); in data set [1] (setting [3]); at Hsp90) was 100 to 1000 nM in each case.

As for `CCNC(=O)c1noc(-c2cc(C(C)C)c(O)cc2O)c1NC(=O)C1CCC(C(F)(F)F)CC1` (stereo not drawn) [Example 21, 5-(2,4-dihydroxy-5-isopropyl-phenyl)-4-[(4-trifluoromethyl-cyclohexanecarbonyl)-amino]-isoxazole-3-carboxylic acid ethylamide], the IC50 in data set [2] (setting [4]) was below 100 nM; in data set [1] (setting [3]), below 100 nM; at Hsp90 it was 100 to 1000 nM.

Turning to `CCNC(=O)c1noc(-c2cc(C(C)C)c(O)cc2O)c1NC(=O)C(C)(C)C` [Example 13, 5-(2,4-dihydroxy-5-isopropyl-phenyl)-4-(2,2-dimethyl-propionylamino)-isoxazole-3-carboxylic acid ethylamide], the IC50 (in data set [1] (setting [3]); on Hsp90) was below 100 nM each time.

Take `CCNC(=O)c1noc(-c2cc(Cl)c(O)cc2O)c1NC(=O)c1ccc(OC)c(OC)c1` [Example 3, 5-(5-chloro-2,4-dihydroxy-phenyl)-4-(3,4-dimethoxy-benzoylamino)-isoxazole-3-carboxylic acid ethylamide]: the figures for the half-maximal inhibitory concentration (IC50) (in data set [2] (setting [4]); in data set [1] (setting [3]); at Hsp90) were 100 to 1000 nM, 1000 to 10000 nM and 100 to 1000 nM, respectively.

For `CCNC(=O)c1noc(-c2cc(C(C)C)c(O)cc2O)c1NC(=O)CCN1CCOCC1` [Example 15, 5-(2,4-dihydroxy-5-isopropyl-phenyl)-4-(3-morpholin-4-yl-propionylamino)-isoxazole-3-carboxylic acid ethylamide], the IC50 (in data set [1] (setting [3]); on Hsp90) was 100 to 1000 nM each time.

With “5-(2,4-dihydroxy-5-isopropyl-phenyl)-4-(4-morpholin-4-yl-methyl-benzoyl amino)-isoxazole-3-carboxylic acid ethylamide hydrochloride [Example 18]”, the IC50 (in data set [2] (72-h exposure); in data set [1] (72-h exposure); at Hsp90) was below 100 nM throughout.

`CCNC(=O)c1cc(C(=O)Nc2c(C(=O)NCC)noc2-c2cc(C(C)C)c(O)cc2O)on1` [Example 22, N^5-(3-(ethylcarbamoyl)-5-(2,4-dihydroxy-5-isopropylphenyl)-isoxazol-4-yl)-N^3-ethylisoxazole-3,5-dicarboxamide]: the IC50 in data set [2] (setting [4]) is 1000 to 10000 nM; in data set [1] (setting [3]), 1000 to 10000 nM; on Hsp90, below 100 nM.

On to `CCNC(=O)c1noc(-c2cc(Cl)c(O)cc2O)c1NCc1sccc1C` [Example 28, 4-((3-methylthiophen-2-yl)methylamino)-5-(5-chloro-2,4-dihydroxyphenyl)-N-ethylisoxazole-3-carboxamide], for which the IC50 fell in the range of 1000 to 10000 nM in data set [2] (setting [4]), 1000 to 10000 nM in data set [1] (setting [3]) and 100 to 1000 nM on Hsp90.

With `CCNC(=O)c1noc(-c2cc(C(C)C)c(O)cc2O)c1NC(=O)c1ccc(OC)cc1` [Example 11, 5-(2,4-dihydroxy-5-isopropyl-phenyl)-4-(4-methoxy-benzoylamino)-isoxazole-3-carboxylic acid ethylamide], the IC50 in data set [1] (setting [3]) is below 100 nM; at Hsp90 it was 100 to 1000 nM.

For `COc1ccc(C(=O)Nc2c(C(=O)NCC(F)(F)F)noc2-c2cc(Cl)c(O)cc2O)cc1` [Example 33, 4-(4-methoxybenzamido)-5-(5-chloro-2,4-dihydroxyphenyl)-N-(2,2,2-trifluoroethyl)-isoxazole-3-carboxamide], the IC50 is 100 to 1000 nM in data set [2] (setting [4]), 1000 to 10000 nM in data set [1] (setting [3]) and 100 to 1000 nM on Hsp90.

For `CCNC(=O)c1noc(-c2cc(Cl)c(O)cc2O)c1NC1CCN(C)CC1` [Example 30, 4-(1-methylpiperidin-4-ylamino)-5-(5-chloro-2,4-dihydroxyphenyl)-N-ethylisoxazole-3-carboxamide], the IC50 (in data set [2] (setting [4]); in data set [1] (setting [3]); at Hsp90) was 1000 to 10000 nM each time.

`CCNC(=O)c1noc(-c2cc(C(C)C)c(O)cc2O)c1NC(=O)[C@H]1CC[C@H](N)CC1` [Example 25, 4-[(trans-4-amino-cyclohexanecarbonyl)-amino]-5-(2,4-dihydroxy-5-isopropyl-phenyl)-isoxazole-3-carboxylic acid ethylamide hydrochloride]: the figures for the IC50 (in data set [1] (setting [3]); on Hsp90) were 1000 to 10000 nM and below 100 nM, respectively.

As to `CCCCC[C@H]1CC[C@H](C(=O)Nc2c(C(=O)NCC)noc2-c2cc(C(C)C)c(O)cc2O)CC1` [Example 20, 5-(2,4-dihydroxy-5-isopropyl-phenyl)-4-[(trans-4-pentyl-cyclohexanecarbonyl)-amino]-isoxazole-3-carboxylic acid ethylamide], the IC50 in data set [2] (setting [4]) fell in the range of 1000 to 10000 nM; in data set [1] (setting [3]) it was 1000 to 10000 nM; at Hsp90, 100 to 1000 nM.

As to `CCNC(=O)c1noc(-c2cc(C(C)C)c(O)cc2O)c1NC(=O)C1CCC(C(C)(C)C)CC1` (stereo not drawn) [Example 24, 4-[(4-tert-butyl-cyclohexanecarbonyl)-amino]-5-(2,4-dihydroxy-5-isopropyl-phenyl)-isoxazole-3-carboxylic acid ethylamide], the figures for the IC50 (in data set [1] (setting [3]); at Hsp90) were 100 to 1000 nM and below 100 nM, respectively.

Regarding `CCNC(=O)c1noc(-c2cc(Cl)c(O)cc2O)c1NC(=O)CCN1CCOCC1` [Example 9, 5-(5-chloro-2,4-dihydroxy-phenyl)-4-(3-morpholin-4-yl-propionylamino)-isoxazole-3-carboxylic acid ethylamide], the IC50 (in data set [2] (setting [4]); in data set [1] (setting [3]); at Hsp90) was 100 to 1000 nM in each case.

On to `CCNC(=O)c1noc(-c2cc(C(C)C)c(O)cc2O)c1NC(=O)C1CCC(OC)CC1` (stereo not drawn) [Example 23, 5-(2,4-dihydroxy-5-isopropyl-phenyl)-4-[(4-methoxy-cyclohexanecarbonyl)-amino]-isoxazole-3-carboxylic acid ethylamide], for which the IC50 (in data set [1] (setting [3]); on Hsp90) was below 100 nM throughout.

Regarding `COc1ccc(C(=O)Nc2c(C(=O)N3CC(F)(F)C3)noc2-c2cc(Cl)c(O)cc2O)cc1` [Example 34, 4-(4-methoxybenzamido)-5-(5-chloro-2,4-dihydroxyphenyl)-isoxazol-3-yl-(3,3-difluoroazetidin-lyl)-methanone], the IC50 in data set [2] (setting [4]) and in data set [1] (setting [3]) was above 10000 nM throughout.

The record behind these values is patent publication US8383616B2, “Aryl isoxazole compounds with antitumoural activities” (Sigma-Tau Industrie Farmaceutiche Riunite SpA, priority 2008, dated 2013).
